How the values were obtained:
Assay type in all cases: in vivo
[1] = tested on: Tetranychus urticae (Two-spotted spider mite); assay: Tetranychus urticae (Two-spotted spider mite) mortality, sprayed bean leaf discs; conditions: foliar, 192 h, 200 ppm spray on bean leaf discs, mixed ages, egg, larval and adult mortality after 8 days
[2] = tested on: Myzus persicae (Green peach aphid); assay: Myzus persicae (Green peach aphid) mortality, sprayed sunflower leaf discs; conditions: foliar, 144 h, 200 ppm spray on sunflower leaf discs, mixed ages, mortality 6 DAT
[3] = tested on: Plutella xylostella (Diamond back moth); assay: Plutella xylostella (Diamond back moth) larval mortality, artificial diet in 24-well MTP; conditions: 144 h, application rate 200 ppm (concentration in well 18 ppm), L2 larvae, larval mortality after 6 days
[4] = tested on: Myzus persicae (Green peach aphid); assay: Myzus persicae (Green peach aphid) mortality, test compounds mixed with Sucrose solution under Parafilm; conditions: 120 h, 12.5 ppm in Sucrose solution, infested pea seedlings on Parafilm, mortality 5 days after infestation
[5] = tested on: Diabrotica balteata (Corn root worm); assay: Diabrotica balteata (Corn root worm) larval mortality, artificial diet in 24-well MTP; conditions: 120 h, application rate 200 ppm (concentration in well 18 ppm), L2 larvae, larval mortality after 5 days
[6] = tested on: Spodoptera littoralis (Egyptian cotton leafworm); assay: Spodoptera littoralis (Egyptian cotton leafworm) mortality, sprayed cotton leaf discs; conditions: foliar, 72 h, 200 ppm spray on cotton leaf discs, L1 larvae, mortality 3 DAT
[7] = tested on: Thrips tabaci (Onion thrips); assay: Thrips tabaci (Onion thrips) mortality, sprayed sunflower leaf discs; conditions: foliar, 168 h, 200 ppm spray on sunflower leaf discs, mixed ages, mortality after 7 days

CCN(C(=O)c1ccncc1)c1cccc(C(=O)Nc2c(Cl)cc(C(F)(C(F)(F)F)C(F)(F)F)cc2OC(F)F)c1OC [Compound 20]
≥ 80%: pest or weed control at 200 ppm [1] | pest or weed control at 200 ppm [2] | pest or weed control at 200 ppm [3] | pest or weed control at 12.5 ppm [4] | pest or weed control at 200 ppm [5] | pest or weed control at 200 ppm [6] | pest or weed control at 200 ppm [7]

O=C(Nc1cccc(C(=O)Nc2c(Br)cc(C(F)(C(F)(F)F)C(F)(F)F)cc2OC(F)F)c1F)c1ccccc1Cl [Compound 21]
≥ 80%: pest or weed control at 200 ppm [1] | pest or weed control at 200 ppm [2] | pest or weed control at 200 ppm [3] | pest or weed control at 12.5 ppm [4] | pest or weed control at 200 ppm [5] | pest or weed control at 200 ppm [6] | pest or weed control at 200 ppm [7]

O=C(Nc1cccc(C(=O)Nc2c(Br)cc(C(F)(C(F)(F)F)C(F)(F)F)cc2OC(F)F)c1F)c1ccc([N+](=O)[O-])cc1 [Compound 22]
≥ 80%: pest or weed control at 200 ppm [1] | pest or weed control at 200 ppm [2] | pest or weed control at 200 ppm [3] | pest or weed control at 12.5 ppm [4] | pest or weed control at 200 ppm [5] | pest or weed control at 200 ppm [6] | pest or weed control at 200 ppm [7]

Cc1ccc(C(=O)Nc2cccc(C(=O)Nc3c(Br)cc(C(F)(C(F)(F)F)C(F)(F)F)cc3OC(F)F)c2F)cc1 [Compound 23]
≥ 80%: pest or weed control at 200 ppm [1] | pest or weed control at 200 ppm [2] | pest or weed control at 200 ppm [3] | pest or weed control at 12.5 ppm [4] | pest or weed control at 200 ppm [5] | pest or weed control at 200 ppm [6] | pest or weed control at 200 ppm [7]

O=C(Nc1cccc(C(=O)Nc2c(Br)cc(C(F)(C(F)(F)F)C(F)(F)F)cc2OC(F)F)c1F)c1cc(Cl)ccc1F [Compound 24]
≥ 80%: pest or weed control at 200 ppm [1] | pest or weed control at 200 ppm [2] | pest or weed control at 200 ppm [3] | pest or weed control at 12.5 ppm [4] | pest or weed control at 200 ppm [5] | pest or weed control at 200 ppm [6] | pest or weed control at 200 ppm [7]

O=C(Nc1cccc(C(=O)Nc2c(Br)cc(C(F)(C(F)(F)F)C(F)(F)F)cc2OC(F)F)c1F)c1ccc([N+](=O)[O-])cc1Cl [Compound 25]
≥ 80%: pest or weed control at 200 ppm [1] | pest or weed control at 200 ppm [2] | pest or weed control at 200 ppm [3] | pest or weed control at 12.5 ppm [4] | pest or weed control at 200 ppm [5] | pest or weed control at 200 ppm [6] | pest or weed control at 200 ppm [7]

O=C(Nc1cccc(C(=O)Nc2c(Br)cc(C(F)(C(F)(F)F)C(F)(F)F)cc2OC(F)F)c1F)c1ccc(OC(F)(F)F)cc1 [Compound 26]
≥ 80%: pest or weed control at 200 ppm [1] | pest or weed control at 200 ppm [2] | pest or weed control at 200 ppm [3] | pest or weed control at 12.5 ppm [4] | pest or weed control at 200 ppm [5] | pest or weed control at 200 ppm [6] | pest or weed control at 200 ppm [7]

O=C(Nc1cccc(C(=O)Nc2c(Br)cc(C(F)(C(F)(F)F)C(F)(F)F)cc2OC(F)F)c1F)c1ccc(F)c(C(F)(F)F)c1 [Compound 27]
≥ 80%: pest or weed control at 200 ppm [1] | pest or weed control at 200 ppm [2] | pest or weed control at 200 ppm [3] | pest or weed control at 12.5 ppm [4] | pest or weed control at 200 ppm [5] | pest or weed control at 200 ppm [6] | pest or weed control at 200 ppm [7]

O=C(Nc1cccc(C(=O)Nc2c(Br)cc(C(F)(C(F)(F)F)C(F)(F)F)cc2OC(F)F)c1F)c1ccc(C(F)(F)F)cc1 [Compound 28]
≥ 80%: pest or weed control at 200 ppm [1] | pest or weed control at 200 ppm [2] | pest or weed control at 200 ppm [3] | pest or weed control at 12.5 ppm [4] | pest or weed control at 200 ppm [5] | pest or weed control at 200 ppm [6] | pest or weed control at 200 ppm [7]

O=C(Nc1cccc(C(=O)Nc2c(Br)cc(C(F)(C(F)(F)F)C(F)(F)F)cc2OC(F)F)c1F)c1ccccc1 [Compound 31]
≥ 80%: pest or weed control at 200 ppm [1] | pest or weed control at 200 ppm [2] | pest or weed control at 200 ppm [3] | pest or weed control at 12.5 ppm [4] | pest or weed control at 200 ppm [5] | pest or weed control at 200 ppm [6] | pest or weed control at 200 ppm [7]

O=C(Nc1cccc(C(=O)Nc2c(Br)cc(C(F)(C(F)(F)F)C(F)(F)F)cc2OC(F)F)c1F)c1ccc(F)cc1 [Compound 32]
≥ 80%: pest or weed control at 200 ppm [1] | pest or weed control at 200 ppm [2] | pest or weed control at 200 ppm [3] | pest or weed control at 12.5 ppm [4] | pest or weed control at 200 ppm [5] | pest or weed control at 200 ppm [6] | pest or weed control at 200 ppm [7]

O=C(Nc1cccc(C(=O)Nc2c(Br)cc(C(F)(C(F)(F)F)C(F)(F)F)cc2OC(F)F)c1F)c1ccc(F)cc1Cl [Compound 36]
≥ 80%: pest or weed control at 200 ppm [1] | pest or weed control at 200 ppm [2] | pest or weed control at 200 ppm [3] | pest or weed control at 12.5 ppm [4] | pest or weed control at 200 ppm [5] | pest or weed control at 200 ppm [6] | pest or weed control at 200 ppm [7]

O=C(Nc1cccc(C(=O)Nc2c(Br)cc(C(F)(C(F)(F)F)C(F)(F)F)cc2OC(F)F)c1F)c1cccc(F)c1F [Compound 38]
≥ 80%: pest or weed control at 200 ppm [1] | pest or weed control at 200 ppm [2] | pest or weed control at 200 ppm [3] | pest or weed control at 12.5 ppm [4] | pest or weed control at 200 ppm [5] | pest or weed control at 200 ppm [6] | pest or weed control at 200 ppm [7]

COc1c(NC(=O)c2ccc([N+](=O)[O-])cc2)cccc1C(=O)Nc1c(Br)cc(C(F)(C(F)(F)F)C(F)(F)F)cc1OC(F)F [Compound 39]
≥ 80%: pest or weed control at 200 ppm [1] | pest or weed control at 200 ppm [2] | pest or weed control at 200 ppm [3] | pest or weed control at 12.5 ppm [4] | pest or weed control at 200 ppm [5] | pest or weed control at 200 ppm [6] | pest or weed control at 200 ppm [7]

O=C(Nc1cccc(C(=O)Nc2c(Br)cc(C(F)(C(F)(F)F)C(F)(F)F)cc2OC(F)F)c1F)c1ccc(F)cc1F [Compound 40]
≥ 80%: pest or weed control at 200 ppm [1] | pest or weed control at 200 ppm [2] | pest or weed control at 200 ppm [3] | pest or weed control at 12.5 ppm [4] | pest or weed control at 200 ppm [5] | pest or weed control at 200 ppm [6] | pest or weed control at 200 ppm [7]

COc1c(NC(=O)c2ccc([N+](=O)[O-])cc2Cl)cccc1C(=O)Nc1c(Br)cc(C(F)(C(F)(F)F)C(F)(F)F)cc1OC(F)F [Compound 47]
≥ 80%: pest or weed control at 200 ppm [1] | pest or weed control at 200 ppm [2] | pest or weed control at 200 ppm [3] | pest or weed control at 12.5 ppm [4] | pest or weed control at 200 ppm [5] | pest or weed control at 200 ppm [6] | pest or weed control at 200 ppm [7]

O=C(Nc1cccc(C(=O)Nc2c(Cl)cc(C(F)(C(F)(F)F)C(F)(F)F)cc2OC(F)F)c1F)c1ccc([N+](=O)[O-])cc1 [Compound 49]
≥ 80%: pest or weed control at 200 ppm [1] | pest or weed control at 200 ppm [2] | pest or weed control at 200 ppm [3] | pest or weed control at 12.5 ppm [4] | pest or weed control at 200 ppm [5] | pest or weed control at 200 ppm [6] | pest or weed control at 200 ppm [7]

COc1c(NC(=O)c2ccc(OC(F)(F)F)cc2)cccc1C(=O)Nc1c(Br)cc(C(F)(C(F)(F)F)C(F)(F)F)cc1OC(F)F [Compound 50]
≥ 80%: pest or weed control at 200 ppm [1] | pest or weed control at 200 ppm [2] | pest or weed control at 200 ppm [3] | pest or weed control at 12.5 ppm [4] | pest or weed control at 200 ppm [5] | pest or weed control at 200 ppm [6] | pest or weed control at 200 ppm [7]

Cc1ccc(C(=O)Nc2cccc(C(=O)Nc3c(Cl)cc(C(F)(C(F)(F)F)C(F)(F)F)cc3OC(F)F)c2F)cc1 [Compound 51]
≥ 80%: pest or weed control at 200 ppm [1] | pest or weed control at 200 ppm [2] | pest or weed control at 200 ppm [3] | pest or weed control at 12.5 ppm [4] | pest or weed control at 200 ppm [5] | pest or weed control at 200 ppm [6] | pest or weed control at 200 ppm [7]

From US11445724B2, “Insecticidal compounds” (SYNGENTA PARTICIPATIONS AG, priority 2013, dated 2022)
